Experimental data taken from patent US11154569B2, “Ruthenium μ-nitrido complexes and their use as calcium uptake inhibitors” (CORNELL UNIVERSITY, priority 2018, dated 2021).

Tests used:
[1] = target: T1, mitochondrial calcium uniporter (MCU) (Homo sapiens, UniProt Q8NE86); assay: MCU-mediated Ca2+ uptake and ΔΨm in permeabilized HEK293T cells; format: cell-based; parameters: endogenous in cells; host or cells: HEK293T (digitonin-permeabilized); settings: for MCU mediated mCa2+ uptake / transient ΔΨm loss (JC-1): 5 μM compound, 20 μM Ca2+ bolus; for MCU mediated mCa2+ uptake: digitonin permeabilized HEK293T cells; for transient ΔΨm loss (JC-1): permeabilized HEK293T cells
T1 sequence (Q8NE86 51-351): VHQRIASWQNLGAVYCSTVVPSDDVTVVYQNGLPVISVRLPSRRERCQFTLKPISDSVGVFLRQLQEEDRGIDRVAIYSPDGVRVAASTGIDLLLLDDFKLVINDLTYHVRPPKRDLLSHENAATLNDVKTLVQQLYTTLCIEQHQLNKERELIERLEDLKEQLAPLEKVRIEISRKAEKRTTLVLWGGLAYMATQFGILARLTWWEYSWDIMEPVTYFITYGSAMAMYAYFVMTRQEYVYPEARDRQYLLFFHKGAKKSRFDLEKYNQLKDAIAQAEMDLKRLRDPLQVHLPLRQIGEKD
T1 sequence (Q9H4I9 48-107 partner limits assumed): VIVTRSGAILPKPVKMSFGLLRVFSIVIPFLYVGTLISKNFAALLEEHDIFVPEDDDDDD
Experimental: An equal number of IHEK293T (6×10^6 cells) were washed in Ca^2+ free PBS, pH 7.4, resuspended and permeabilized with 40 μg/ml digitonin in 1.5 ml of intracellular medium (ICM) composed of 120 mM KCl, 10 mM NaCl, 1 mM K—H2PO4, 20 mM HE PES-Tris, pH 7.2 and 2 μM thapsigargin to block the SERCA pump. All measurements were performed in the presence of 2 mM succinate. The permeabilized cells were loaded with JC-1 (800 nM) and Fura2-FF (0.5 μM), respectively. Fluorescence was monitored in a multi-wavelength excitation dual-wavelength emission fluorimeter. [Ca^2+]out is represented as the excitation ratio (340 nm/380 nm) of Fura2-FF/FA fluorescence and ΔΨm as the ratio of the fluorescence of J-aggregate (570 nm excitation/595 nm emission) and monomer (490 nm excitation/535 nm emission) forms of JC-1. A series of extra-mitochondrial Ca^2+ bolus (20 μM) was added and mitochondrial uncoupler, CCCP (2 jμM), were added at the indicated time points. All of the experiments were performed at 37° C. with constant stirring.
With the new nitrido-bridged ruthenium compounds C-2 and C-3 prepared, MCU-inhibitory properties of these compounds were evaluated and their activities compared to C-1, the oxo-bridged Ru360 analogue of the conventional art (S. R. Nathan et al., Inorg. Chem. 2017, 56, 3123-3126 and S. R. Nathan et al., J. Vis. Exp. 2017, 56527). The cytotoxicity of the complexes in HEK293 cells was first measured using the colorimetric thiazolyl blue tetrazolium bromide (MTT) assay, as well known in the art. […] To measure the effect of these compounds on MCU activity, permeabilized HEK293T cells were treated with commercially available Ru360, C-1, C-2, or C-3 (5 jμM) 200 seconds prior to the delivery of a 20 μM bolus of Ca^2+ in the presence of 2 mM succinate as an energy source and the sarco/endoplasmic reticulum Ca^2+-ATPase (SERCA) pump blocker thapsigargin to prevent ER Ca^2+ uptake (S. Shanmughapriya et al., Sci. Signal. 2015, 8, ra23).
FIGS. 2A-2C are graphs showing changes in mitochondrial membrane potential (ΔΨm, JC-1, top panel) and extramitochondrial Ca^2+([Ca^2+]out) clearance (Fura-2 FF, bottom panel) in digitonin permeabilized HEK293T cells in response to 20 μM of Ca^2+ after treatment with 5 μM of C-1 (FIG. 2A), C-2 (FIG. 2B), and C-3 (FIG. 2C). The transient drop in ΔΨm in control cells upon Ca^2+ addition indicates accumulation of Ca^2+ in the mitochondrial matrix. FIG. 2D is a graph quantifying the rate of [Ca^2+] uptake as a function of decrease in [Ca^2+]out after a […] Ca^2+ pulse. […] Additionally, ΔΨm was monitored using 5,5′,6,6′-tetrachloro-1,1′,3,3′-tetraethylbenzimidazolylcarbocyanine iodide (JC-1) dye (M. Reen et al., Biochemistry 1991, 30, 4480-4486).
Having identified (C-2 as a cell-permeable MCU inhibitor, a dose-response analysis was performed to determine the potency of C-2 towards mCa^2+ uptake inhibition of C-2 in a permeabilized cell system. Permeabilized IHEK293T cells were treated with C-2 (1 nM to 1 μM). A 20 μM Ca^2+ bolus was added after baseline recording, and the extra-mitochondrial calcium cleared was used as an indicator for MCU-mediated mCa^2+ uptake using Fura-2FF. The results are shown in FIGS. 4A-4C. FIG. 4A includes representative traces of [Ca^2+]out clearance in permeabilized HEK293T cells challenged with a range of C-2 concentrations (1, 2, 3, 5, and 10 nM). FIG. 4B is a graph comparing MCU-inhibitory effect by Ru360 (30 nM) and C-2 (2 and 10 nM) at lower concentrations. FIG. 4C is a graph showing calculation of dose-dependent IC50 inhibition by C-2 and Ru360. Data represent mean±SEM (n=3-6), n.s.=not significant. […] Furthermore, complete inhibition of mCa^2+ uptake was observed when cells were dosed with 10 nM C-2 while 500 nM of Ru360 was required for the same response (FIGS. 4A and 4B).

HEK293 cells = assay: MTT cytotoxicity assay; format: cell-based, human
Experimental: HEK293 (human embryonic kidney cells were obtained from American Type Culture Collection (ATCC, Washington D.C.) and cultured as adherent monolayers in a humidified 5% CO2 atmosphere at 37° C. in Minimum Essential Media supplemented with 10% fetal bovine serum (FBS) and 100 U/mL penicillin/streptomycin. HeLa cells were cultured in Dulbecco's Modified Eagle's Medium (DMEM) supplemented with 10% FBS and 100 U/mL penicillin/streptomycin. Cells were checked for contamination monthly using the PlasmoTest™ mycoplasma detection kit. Ventricular cardiomyocytes were isolated from neonatal rats (NRVMs) as previously described (H. M. Piper et al., Piper H. M. (eds), Cell Culture Techniques in Heart and Vessel Research, Springer Verlag: Berlin, 1990). The isolated myocytes were cultured in Ham's F-10 supplemented with 5%/o fetal bovine serum (FBS) and penicillin/streptomycin (100 U/ml) at 37° C. in a 95% air/5% CO2 humidified atmosphere for four days
Cells were seeded at 4000 cells/well in 100 μL/well in a 96-well plate and incubated for 24 hours. The media was removed and replaced with 200 μL of growth media containing varying concentrations of the complex. After 72 hours of incubation, the media was replaced with MEM containing 1 mg/mL of (4,5-dimethylthiazol-2-yl)-2,5-diepheyltetrazolium bromide (MTT). After four hours incubation, the media was removed and the purple formazan crystals were solubilized using 100 μL of a 8/1 DMSO/glycine buffer (pH 10) mixture. The absorbance at 570 nm was measured using a plate reader.
With the new nitrido-bridged ruthenium compounds C-2 and C-3 prepared, MCU-inhibitory properties of these compounds were evaluated and their activities compared to C-1, the oxo-bridged Ru360 analogue of the conventional art (S. R. Nathan et al., Inorg. Chem. 2017, 56, 3123-3126 and S. R. Nathan et al., J. Vis. Exp. 2017, 56527). The cytotoxicity of the complexes in HEK293 cells was first measured using the colorimetric thiazolyl blue tetrazolium bromide (MTT) assay, as well known in the art. […]

| Compound | IC50 [1] [nM] | MCU mediated mCa2+ uptake [1] | transient ΔΨm loss (JC-1) [1] | IC50 (HEK293 cells) [nM] | toxicity to human cells (HEK293 cells) |
| --- | --- | --- | --- | --- | --- |
| N.N.N.N.N.N.N.N.O=C[O-].O=C[O-].[O-2].[Ru+3].[Ru+4] [Ru360, reference compound] | 30 | significant reduction in MCU mediated mCa^2+ uptake | no transient A m loss | – | – |
| [Ru2(μ-N)(en)4Cl2]Cl3 [C-3] | – | significant reduction in MCU mediated mCa^2+ uptake | no transient A m loss | 226000 ± 19000 | – |
| N.N.N.N.N.N.N.N.[Cl-].[Cl-].[N-3].[Ru+4].[Ru+4] [C-2, [Ru2(μ-N)(NH3)8Cl2]Cl3] | 2.6 | significant reduction in MCU mediated mCa^2+ uptake | no transient A m loss | – | low toxicity to human cells |
